Reference: patent publication US9062071B2, “Substituted piperidines as HDM2 inhibitors” (Merck Sharp & Dohme Corp, priority 2011, dated 2015)
pIC50: −log10 of the molar value.

Each compound was assayed against HDM2 protein (Homo sapiens, UniProt Q00987) (assay: fluorescence polarization screening assay (FP IC50)). Conditions: class symbols.
Assay type: binding
Description: The compounds were evaluated to determine activity at the HDM2 protein by known methods such as the fluorescence polarization screening assay that measures the inhibitory concentration that achieves 50% of maximal activity (FP IC50) and the dissociation constant for inhibitor binding (FP Ki). [Zhang et al., J. Analytical Biochemistry 331: 138-146 (2004)].

Sequence of HDM2 protein (Q00987 whole entry): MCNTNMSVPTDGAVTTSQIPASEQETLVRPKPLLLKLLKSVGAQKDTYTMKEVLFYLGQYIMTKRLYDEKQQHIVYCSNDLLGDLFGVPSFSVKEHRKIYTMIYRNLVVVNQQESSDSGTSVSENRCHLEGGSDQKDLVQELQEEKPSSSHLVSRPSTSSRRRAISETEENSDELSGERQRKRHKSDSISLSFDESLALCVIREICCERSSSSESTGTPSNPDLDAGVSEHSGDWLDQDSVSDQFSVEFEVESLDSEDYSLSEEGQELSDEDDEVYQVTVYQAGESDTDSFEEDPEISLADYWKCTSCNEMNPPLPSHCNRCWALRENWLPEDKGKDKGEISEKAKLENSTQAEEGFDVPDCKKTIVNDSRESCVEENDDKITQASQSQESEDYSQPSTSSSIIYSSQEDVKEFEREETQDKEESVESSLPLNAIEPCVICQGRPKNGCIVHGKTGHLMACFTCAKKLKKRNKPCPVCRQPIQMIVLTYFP

Structure (SMILES) | pIC50
CCC[C@H]1N(C(=O)c2ncccc2C(F)(F)F)CCC[C@@]1(Oc1csc(C(F)(F)F)c1)C(=O)N1Cc2ccc(F)cc2C[C@H]1CN(C)C(=O)[C@@H](C)O [Compound A158, (2R)-N-{[(3S)-6-fluoro-2-{[(2R,3S)-2-propyl-1-{[3-(trifluoromethyl)pyridin-2-yl]carbonyl}-3-{[5-(trifluoromethyl)thiophen-3-yl]oxy}piperidin-3-yl]carbonyl}-1,2,3,4-tetrahydroisoquinolin-3-yl]methyl}-2-hydroxy-N-methylpropanamide] | 4.70 to 7.00
CCC[C@H]1N(C(=O)c2ncccc2C(F)(F)F)CCC[C@@]1(Oc1csc(C(F)(F)F)c1)C(=O)N1Cc2ccc(F)cc2C[C@H]1C(=O)O [Compound A125, (3S)-6-fluoro-2-{[(2R,3S)-2-propyl-1-{[3-(trifluoromethyl)pyridin-2-yl]carbonyl}-3-{[5-(trifluoromethyl)thiophen-3-yl]oxy}piperidin-3-yl]carbonyl}-1,2,3,4-tetrahydroisoquinoline-3-carboxylic acid] | 7.00 to 9.00
O=C(c1ncccc1C(F)(F)F)N1CCC[C@@](Oc2csc(C(F)(F)F)c2)(C(=O)N2CCc3cc(Cl)ccc3C2)[C@H]1CCNC1CCOCC1 [Compound A112, N-{2-[(2R,3S)-3-[(6-chloro-3,4-dihydroisoquinolin-2(1H)-yl)carbonyl]-1-{[3-(trifluoromethyl)pyridin-2-yl]carbonyl}-3-{[5-(trifluoromethyl)thiophen-3-yl]oxy}piperidin-2-yl]ethyl}tetrahydro-2H-pyran-4-amine] | 7.00 to 9.00
CCC[C@H]1N(C(=O)c2ncccc2C(F)(F)F)CCC[C@@]1(Oc1csc(C(F)(F)F)c1)C(=O)N1CCc2ccsc2C1CC(C)(C)C(=O)O (stereo partly drawn) [Compound A29, 2,2-dimethyl-3-(6-{[(2R,3S)-2-propyl-1-{[3-(trifluoromethyl)pyridin-2-yl]carbonyl}-3-{[5-(trifluoromethyl)thiophen-3-yl]oxy}piperidin-3-yl]carbonyl}-4,5,6,7-tetrahydrothieno[2,3-c]pyridin-7-yl)propanoic acid] | 7.00 to 9.00
CCC[C@H]1N(C(=O)c2ncccc2C(F)(F)F)CCC[C@@]1(Oc1csc(C(F)(F)F)c1)C(=O)N1CCc2cc(Cl)ccc2C1COC (stereo partly drawn) [Compound A107, 6-chloro-1-(methoxymethyl)-2-{[(2R,3S)-2-propyl-1-{[3-(trifluoromethyl)pyridin-2-yl]carbonyl}-3-{[5-(trifluoromethyl)thiophen-3-yl]oxy}piperidin-3-yl]carbonyl}-1,2,3,4-tetrahydroisoquinoline] | 4.70 to 7.00
COCC1c2ccc(Cl)cc2CCN1C(=O)[C@]1(Oc2csc(C(F)(F)F)c2)CCCN(C(=O)c2ncccc2C(F)(F)F)[C@@H]1CCN1CCOCC1 (stereo partly drawn) [Compound A17, 6-chloro-1-(methoxymethyl)-2-{[(2R,3S)-2-(2-morpholin-4-ylethyl)-1-{[3-(trifluoromethyl)pyridin-2-yl]carbonyl}-3-{[5-(trifluoromethyl)thiophen-3-yl]oxy}piperidin-3-yl]carbonyl}-1,2,3,4-tetrahydroisoquinoline] | 7.00 to 9.00

Next, values leading:

pIC50 | Structure (SMILES)
7.00 to 9.00 | CCC[C@H]1N(C(=O)c2ncccc2C(F)(F)F)CCC[C@@]1(Oc1csc(C(F)(F)F)c1)C(=O)N1CCc2ccsc2C1CC(C)(C)C(=O)NCc1nnn[nH]1 (stereo partly drawn) [Compound A30, 2,2-dimethyl-3-(6-{[(2R,3S)-2-propyl-1-{[3-(trifluoromethyl)pyridin-2-yl]carbonyl}-3-{[5-(trifluoromethyl)thiophen-3-yl]oxy}piperidin-3-yl]carbonyl}-4,5,6,7-tetrahydrothieno[2,3-c]pyridin-7-yl)-N-(1H-tetrazol-5-ylmethyl)propanamide]
7.00 to 9.00 | CCN1CCN(CC[C@H]2N(C(=O)c3ncccc3C(F)(F)F)CCC[C@@]2(Oc2csc(C(F)(F)F)c2)C(=O)N2CCc3cc(Cl)ccc3C2)CC1 [Compound A114, 6-chloro-2-{[(2R,3S)-2-[2-(4-ethylpiperazin-1-yl)ethyl]-1-{[3-(trifluoromethyl)pyridin-2-yl]carbonyl}-3-{[5-(trifluoromethyl)thiophen-3-yl]oxy}piperidin-3-yl]carbonyl}-1,2,3,4-tetrahydroisoquinoline]
7.00 to 9.00 | CCC[C@H]1N(C(=O)c2ncccc2C(F)(F)F)CCC[C@@]1(Oc1csc(C(F)(F)F)c1)C(=O)N1Cc2ccc(F)cc2C[C@H]1CCC(=O)O [Compound A127, 3-[(3R)-6-fluoro-2-{[(2R,3S)-2-propyl-1-{[3-(trifluoromethyl)pyridin-2-yl]carbonyl}-3-{[5-(trifluoromethyl)thiophen-3-yl]oxy}piperidin-3-yl]carbonyl}-1,2,3,4-tetrahydroisoquinolin-3-yl]propanoic acid]
